Among the data in patent US20050215582A1, “Substituted pyrrolopyridines” (priority 2002, published 2005) are IC50 values, retold here.

Structures can show the parent of a compound that is named as a salt.

The target in the assay is T1, recombinant human Itk kinase domain fused with GST (Homo sapiens, UniProt Q08881).
T1 construct: recombinant human Itk kinase domain fused with GST; GST (Glutathione S-Transferase); made in house; host or cells: High five insect cells
T1 sequence (Q08881 363-615 limits assumed): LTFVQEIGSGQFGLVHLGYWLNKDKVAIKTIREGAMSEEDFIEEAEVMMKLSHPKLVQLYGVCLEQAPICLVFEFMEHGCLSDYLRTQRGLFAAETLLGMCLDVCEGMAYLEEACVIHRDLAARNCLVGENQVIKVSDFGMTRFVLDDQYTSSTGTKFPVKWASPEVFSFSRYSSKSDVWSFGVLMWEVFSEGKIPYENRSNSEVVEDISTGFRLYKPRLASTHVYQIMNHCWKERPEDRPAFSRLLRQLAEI
Nature of the assay: Itk LANCE TRF Assay. The class given is biochemical. The conditions noted are these: 50 μM ATP, 2 μM biotinylated peptide substrate, 50 minutes RT; read-out: Inhibition of Kinase Itk (IC50 μM). On the procedure:
The Itk kinase assay utilized recombinant human Itk kinase domain fused with GST (Glutathione S-Transferase). The protein was expressed in High five insect cells, purified in one step on an affinity chromatography glutathione column and stored in 50 mM Tris/HCl (pH 7.6), 150 mM NaCl, 5% (w/v) mannitol, 1 mM DTT, 30% glycerol at −70° C. The kinase substrate used in the assay was a biotinylated peptide derived from the Src-optimal substrate (Nair et at, J. Med. Chem., 38: 4276, 1995; biotin-AEEEIYGEFEAKKKK).
The assay additions were as follows: Test compounds (or controls; 1 μL in 100% DMSO) were added to black 96-well flat-bottomed plates (Greiner 655076) followed by 20 μL Itk in assay buffer and the reaction was started by adding 20 μL ATP and peptide substrate in assay buffer. The assay buffer constitution during phosphorylation was: 50 mM HEPES (pH 6.8), 10 mM MgCl2, 0.015% Brij 35, 1 mM DTT, 10% glycerol, 160 ng/well Itk, 2 μM peptide substrate and 50 μM ATP. The assay was stopped after 50 minutes (RT) by adding 150 μL ice-cold Stop solution (50 mM Tris/HCl, pH 7.5, 10 mM EDTA, 0.9% NaCl and 0.1% BSA) together with LANCE reagents (2 nM PT66-Eu^3+, Wallac AD0069 and 5 μg/ml Streptavidin-APC, Wallac AD0059. Both concentrations were final in stopped assay solution). The plates were measured on a Wallac 1420 Victor 2 instrument with TRF settings after 1 h incubation, and the ratio (665 signal/615 signal)*10000 was used to calculate the inhibition values. IC50 values were determined using XLfit.
Background: Time-resolved FRET reads energy transfer from a long-lived donor to a nearby acceptor.
As a reminder, the IC50 is the concentration needed to halve the response being measured. Consider `Cc1cnc2[nH]c(-c3ccco3)c(C3CCCN(C(N)=O)C3)c2c1` (stereo not drawn) [Example 5, 3-[2-(2-Furyl)-5-methyl-1H-pyrrolo[2,3-b]pyridin-3-yl]piperidine-1-carboxamide], for which the IC50 is 0.26 µM.
Under `COc1ccc(-c2[nH]c3ncc(Br)cc3c2N2CCNCC2)cc1` [Example 21, 5-Bromo-2-(4-methoxy-phenyl)-3-piperazin-1-yl-1H-pyrrolo[2,3-b]pyridine trifluoroacetate] stands 0.09 µM; under `CN(C)CCCOc1ccc(-c2[nH]c3ncc(Cl)cc3c2C2CCNCC2)cc1` [Example 8, {3-[4-(5-Chloro-3-piperidin-4-yl-1H-pyrrolo[2,3-b]pyridin-2-yl)phenoxy]propyl}dimethylamine], 0.18 µM.
